Source: PMC11653107, “Development of a UPLC-MS/MS method for the determination of sulfatinib and its no interaction with myricetin in rats” (Frontiers in Pharmacology, 2024)
Where two headings read alike, the source gives them in different places.

Assays:
[1] = tested on: cytochrome P450 3A4 (CYP3A4); set-up: method as in Li et al., 2020b; conditions: in vitro; ref Li et al., 2020b; cited from earlier work
[2] = set-up: method as in Li et al., 2020a; conditions: healthy subjects, single oral intake of 300 mg; ref Li et al., 2020a; cited from earlier work
[3] = Stability of sulfatinib in rat plasma QCs under storage and processing conditions; conditions: analyzer 10°C for 4 h, −80°C for 3 weeks, room temperature for 3 h, three freeze-thaw cycles; QCs 2, 800, 1,600 ng/mL
Experimental: The stability was investigated by repeating the assay five times under different storage conditions for three rat plasma QCs (2, 800 and 1,600 ng/mL). The conditions included stability in the analyzer (4 h, 10°C), long-term storage ([…], 3 weeks), short-term storage (3 h, room temperature) and freeze-thaw cycles (three complete times).

[4] = Pharmacokinetics of sulfatinib in rats, DDI study with myricetin (UPLC-MS/MS of plasma); assay type: in vivo, Sprague-Dawley (SD) rats
Experimental: In the present assay, a Waters Xevo TQS triple quadrupole tandem mass spectrometer (Milford, MA, United States), connected to a Waters Acquity UPLC I class system (Milford, MA, United States) was applied in the method. The parameters of mass spectrometry were determined as follows before analysis: capillary voltage 2.0 kV, desolvation gas 1000 L/h, collision gas 0.15 mL/min, desolvation temperature 600°C and conical gas 150 L/h. Seperations of sulfatinib and IS were done on an Acquity UPLC BEH C18 (2.1 mm × 50 mm, 1.7 µm) set at 40°C. The autosampler used to analyze all samples was held at 10°C. The measurements were conducted using a multiple reaction monitoring (MRM) scanning mode with an electrospray ionization (ESI) source in positive ion mode. At a flow rate of 0.40 mL/min, the mobile phase was consisted of acetonitrile (A) and 0.1% formic acid aqueous solution (B), with a linear gradient scheme as follows: 0–0.5 min, A/B = 10/90%; 0.5–1.0 min, A/B = 90/10%; 1.0–1.4 min, A/B = 90/10%; 1.4–1.5 min, A/B = 10/90%; 1.5–2.0 min, A/B = 10/90%. The parameters optimized for mass spectrometry of sulfatinib and IS included cone voltages of 20 V and 30 V, and collision energies of 25 eV and 28 eV, respectively. The parent and daughter ions of sulfatinib and IS were m/z 480.98 → 329.02 and m/z 426.87 → 369.84, respectively (as indicated in Table 1).
The protein was precipitated by mixing 300 µL of acetonitrile and 10 µL of IS working solution into 100 µL of plasma. After a full vortex for 2.0 min, the mixture was centrifuged at 4°C for 10 min (13,000 rpm). Afterwards, the supernatant of 100 µL was moved into a vial, with a 2 µL injected and analyzed by UPLC-MS/MS.
Ten male Sprague-Dawley (SD) rats for this experiment, weighting 200 ± 10 g, were purchased from the Experimental Animal Center of The First Affiliated Hospital of Wenzhou Medical University (Zhejiang, China). Prior to the start of the investigation, all rats were domesticated under laboratory conditions for 1 week to minimize their suffering. The animals were kept in an appropriate environment (temperature, humidity, light conditions, freely available food and water). The experimental process of the animals was strictly adhered to the regulations for the care and use of laboratory animals as reviewed and approved by the Ethics Committee of The First Affiliated Hospital of Wenzhou Medical University (Wenzhou, China). The preparation of sulfatinib for gavage was carried out using 0.5% carboxymethylcellulose sodium (CMC-Na) solution. Half an hour after the administration of either myricetin or the same dose of 0.5% CMC-Na solution, 10 rats were simultaneously administered orally with sulfatinib (30 mg/kg). At 0.25, 0.5, 0.75, 1, 1.5, 2, 3, 4, 6, 8, 12, 24, 48 h, approximately 0.3 mL of blood was obtained from the tail vein of SD rats and transferred into heparinized polyethylene tubes. A 100 µL of plasma was obtained by centrifuging the blood at 13,000 rpm for 8 min and stored at −80°C for sample treatment.
Origin 9.0 (Originlab Inc., Northampton, MA, United States) was used in this experiment to plot the mean concentration of sulfatinib versus time in plasma. DAS software (Drug and Statistics, Version 3.0, China) was applied to fit the non-compartmental model of sulfatinib, and the main pharmacokinetic parameters of sulfatinib were obtained. Pharmacokinetics were compared for each group using SPSS software (version 24.0, Chicago, United States, SPSS Inc.) using the independent samples t-test. At p < 0.05, the difference was significant.

[5] = cited from earlier work
CYP3A4 = tested on: CYP3A4; set-up: method as in Li et al., 2018; conditions: studies in rats; ref Li et al., 2018; cited from earlier work
CYP2C9 = tested on: CYP2C9; set-up: method as in Li et al., 2018; conditions: studies in rats; ref Li et al., 2018; cited from earlier work
[6] = male, Sprague-Dawley, rat, in vivo, po, 30 mg/kg

Cc1cc2cc(Oc3ccnc(Nc4cccc(CS(=O)(=O)NCCN(C)C)c4)n3)ccc2[nH]1 [Sulfatinib]
enzyme mediating the metabolism [1]: major enzyme mediating the metabolism
AUC [2]: 2670 ng·h/mL
Cmax [2]: 205 ng/mL
t1/2 [2]: 17.1 h
time to Cmax [2]: approximately 2 h
stability in rat plasma [3]: satisfied
AUC0→t [4, 6]: 9,168.6 ± 2,531.4 ng/mL·h
AUC0→∞ [4, 6]: 9,171.6 ± 2,532.4 ng/mL·h
CLz/F [4, 6]: 58.3 ± 18.3 mL/min/kg
Tmax [4, 6]: 4.4 ± 0.9 h
AUC(0-t) ([4]; male, Sprague-Dawley, rat, in vivo, po, 30 mg/kg, AUC0→t): 9250 ng·h/mL
AUC(0-inf) ([4]; male, Sprague-Dawley, rat, in vivo, po, 30 mg/kg, AUC0→∞): 9260 ng·h/mL
CL/F ([4]; male, Sprague-Dawley, rat, in vivo, po, 30 mg/kg, CLz/F): 55 mL/min/kg
Cmax ([4]; male, Sprague-Dawley, rat, in vivo, po, 30 mg/kg, Cmax): 1040 ng/mL
Tmax ([4]; male, Sprague-Dawley, rat, in vivo, po, 30 mg/kg, Tmax): 3.4 ± 1.7 h
half-life ([4]; male, Sprague-Dawley, rat, in vivo, po, 30 mg/kg, t1/2): 3.64 h
AUC ([4]; rat, in vivo, po, 30 mg/kg): 8970 ng·h/mL
time to Cmax ([4]; rat, in vivo, po, 30 mg/kg): approximately 3.8 h
serum level of the original drug ([5]; after oral administration, ref Li et al., 2020b): about 40.3%
fecal excretion ([5]; excretion route mainly fecal, ref Lu et al., 2024, Xu et al., 2017, Li et al., 2020a): 88%

O=c1c(O)c(-c2cc(O)c(O)c(O)c2)oc2cc(O)cc(O)c12 [myricetin, Myricetin]
inhibition of CYP3A4 (CYP3A4): inhibited
inhibition of CYP2C9 (CYP2C9): inhibited
effect of myricetin on AUC0→∞ and Cmax of sulfatinib ([4]; rats, 50 mg/kg myricetin orally half an hour before 30 mg/kg sulfatinib, P > 0.05): no significant effect
